Read-outs that look alike come from different tables or passages of the source.
Assays:
[1] = test system: IPF mice model (DTR+ mice given diphtheria toxin); assay type: in vivo
[2] = test system: WI-38 human lung fibroblasts; assay: TGF-β induced mRNA expression of pro-fibrotic markers in WI-38 human lung fibroblast cell line; assay type: cell-based; conditions: WI-38 cells, various concentrations of Compound A 1 hour before TGF-β (3 ng/mL) and forskolin (1 μM), 24 hours incubation, normalized to GAPDH; FIG. 2
Protocol: 2) In Vitro Effects of PDE4 Inhibitor Compound A in […]
For gene expression assay, WI-38 human lung fibroblasts were suspended in Eagle's minimum essential medium (E-MEM, Invitrogen) containing 10% heat-inactivated fetal bovine serum (FBS) and seeded on 24 well plates as 0.5×10^5 cells/500 μL/well. Twenty-four hours after the seeding, medium was re-placed by E-MEM containing 0.5% FBS. Twenty-four hours after medium change, cells were treated with various concentration of Compound A. After 1 hour, cells were treated with TGF-β (3 ng/mL) and forskolin (1 μM). After the 24-hours incubation, total RNA was ex-tracted from cell lysate using RNeasy 96 Kit (QIAGEN 74182). cDNA was amplified using High-Capacity cDNA Reverse Transcription Kit (ABI 4368813), and target gene mRNA was measured using TaqMan PCR with predesigned primers for type 1 collagen alpha 1 chain (Hs00164004_m1, Applied Biosystems), fibronectin (Hs00365052_m1, Applied Biosystems), connective tissue growth factor (Hs01026927_g1, Applied Biosystems), plasminogen activator inhibitor-1 (Hs00167155_m1, Applied Biosystems) and GAPDH (Hs02758991_g1, Applied Biosystems) as the endogenous reference. The target gene expression levels were normalized by mRNA expression of GAPDH and the data represent the relative mRNA levels to TGF-β/forskolin-treated group.

With `Cc1ccc(NC(=O)c2ccc(CN3CCN(C)CC3)cc2)cc1Nc1nccc(-c2cccnc2)n1` [Imatinib, reference compound] the “body weight reduction by induction of epithelial cell injury” value ([1]; DT day 1-14, imatinib 50 mg/kg intraperitoneal once daily day 11-21, FIG. 1B) was “not blunted” and the “suppression of lung hydroxyproline content (severity of lung fibrosis)” value ([1]; DT day 1-14, imatinib 50 mg/kg intraperitoneal once daily day 11-21, assessed day 21, FIG. 1A) was “only a moderate efficacy”.
With `CCOc1cc2c(cc1OC)C(c1ccc(=O)n(C)c1)=N[C@@H]1CC[C@@H](O)C[C@H]21` [Compound A, 5-((2R,4aR,10bR)-9-Ethoxy-2-hydroxy-8-methoxy-1,2,3,4,4a,10b-hexahydro-phenanthridin-6-yl)-1-methyl-1H-pyridin-2-one] the “mRNA expression of fibrotic marker genes (type 1 collagen alpha 1, fibronectin, connective tissue growth factor, plasminogen activator inhibitor-1) induced by TGF-β” value [2] was “significantly suppressed expression of fibrotic marker genes induced by TGF-β”, the “body weight reduction by induction of epithelial cell injury” value ([1]; DT day 1-14, Compound A 0.3 or 3.0 mg/kg oral once daily day 11-21, FIG. 1B) was “blunting effect was shown” and the “suppression of lung hydroxyproline content (severity of lung fibrosis)” value ([1]; DT day 1-14, Compound A oral gavage once daily day 11-21, already starting at 0.3 mg/kg (doses 0.3 and 3.0 mg/kg), assessed day 21, FIG. 1A) was “robust and significant effect on suppression of hydroxyproline content”.
